Experimental data: patent publication US11369113B2, “Vector control compositions, methods and products utilizing same” (Syngenta Participations AG, priority 2017, dated 2022)
Where two headings read alike, the source gives them in different places.

Key:
Type in all cases: in vivo
[1] = test system: Kisumu sus (Anopheles gambiae, susceptible); test: Example B4: bottle based cross resistance study (CDC bottle assay), strain Kisumu sus; conditions: read-out: mean knockdown or mortality (Table B4 does not name the quantity)
Experimental: (§1) Based on the “CDC bottle assay” (described at http://www.cdc.gov/malaria/resources/pdf/fsp/ir_manual/ir_cdc_bioassay_en.pdf) 1 ml of ethanol containing a test compound at a defined concentration was added to a 250 ml glass bottle and the bottles were placed on a rolling table to coat the inner surfaces as the solvent evaporated. Once dry, twenty five non-blood fed adult female mosquitoes of the appropriate species and strains (each three day old) were aspirated from the stock culture and gently blown into the exposure bottles. The lid of the bottle was replaced and the bottle placed upright out of direct sun light under standard culture conditions, nominally 26° C. and 60-80% relative humidity.
(§2) A stopwatch was started, and the assessment of the knock-down were made after 15 mins and 60 minutes. A mosquito was said to be knocked down if it was unable to stand, following the CDC definition. The bottles were replaced in an upright position when not being assessed.
(§3) After one hour the mosquitoes were carefully removed from the bottle with an aspirator and placed in a recovery cup. The mosquitoes were supplied with a 10% sucrose solution on a cotton wool bung, and stored under culture conditions. Assessments of the mortality were made after 24 hours.
(§4) Each treatment was replicated a minimum of three times, with the exception of the Banfora strain, where only a single replicate was undertaken, with the mean knockdown or mortality recorded. In each study, a set of bottles was infested with a known insecticide susceptible strain of mosquitoes from the same genera as the resistant strains.

[2] = test system: Anopheles stephensi (Indian Malaria Mosquito); test: Example B2: treated 12-well plate contact test, adult female Anopheles stephensi; conditions: for mortality at 0.2 ppm / mortality at 2 ppm / mortality at 20 ppm: Anopheles stephensi
Experimental: […] Once the deposits were dry, five non-blood fed adult female Anopheles stephensi (between two to five day old) were added to each well, and sustained with a 10% sucrose solution in a cotton wool plug. Assessment of the knockdown was carried our after 1 hour, and mortality after 24 hours and 48 hours.

[3] = test system: VK7 2014 (An. coluzzii, DDT & pyrethroid resistant); test: Example B4: bottle based cross resistance study (CDC bottle assay), strain VK7 2014; parameters: unit not given here; conditions: 1 h bottle exposure
Experimental: as §1, §2, §3, §4

Anopheles stephensi = test: Example B3: treated 6-well plate contact test, adult female Anopheles stephensi; conditions: for mortality at 0.3125 ppm / mortality at 0.625 ppm / mortality at 1.25 ppm / mortality at 2.5 ppm: Anopheles stephensi; for Knockdown 1 h: mean of two replicates
Experimental: The individual wells of six (6) well tissue culture plates were treated with 250 μl of an ethanol solution containing a test compound at a defined concentration. Once the deposits were dry, ten non-blood fed adult female Anopheles stephensi (each between two to five day old) were added to each well, and sustained with a 10% sucrose solution in a cotton wool plug. Assessment of the knockdown was carried our after 1 hour, and mortality after 24 hours and 48 hours. Each treatment was replicated twice, with the mean mortality recorded.

[4] = test system: Tiassalé 13 (An. gambiae, pyrethroid resistant); test: Example B4: bottle based cross resistance study (CDC bottle assay), strain Tiassalé 13; conditions: Anopheles gambiae, read-out: mean knockdown or mortality (Table B4 does not name the quantity)
Experimental: as §1, §2, §3, §4

[5] = test system: Banfora (An. gambiae, DDT & pyrethroid resistant); test: Example B4: bottle based cross resistance study (CDC bottle assay), strain Banfora; conditions: Anopheles gambiae, read-out: knockdown or mortality (Table B4 does not name the quantity)
Experimental: as §1, §2, §3, §4

[6] = test system: Aedes aegypti (Yellow Fever Mosquito); test: whole plant or invertebrate; conditions: for mortality at 0.2 ppm / mortality at 2 ppm / mortality at 20 ppm: Aedes aegypti
Experimental: […] Once the deposits were dry, five non-blood fed adult female Aedes aegypti (between two to five day old) were added to each well, and sustained with a 10% sucrose solution in a cotton wool plug. Assessment of the knockdown was carried our after 1 hour, and mortality after 24 hours and 48 hours.

[7] = 24 h, read-out: adult mortality 24 h
[8] = 48 h, read-out: adult mortality 48 h
[9] = Tiassalé 13, rate 6.25 ppm, 1 h bottle exposure
[10] = Tiassalé 13, rate 12.5 ppm, 1 h bottle exposure
[11] = Tiassalé 13, rate 25 ppm, 1 h bottle exposure
[12] = Banfora, rate 6.25 ppm, 1 h bottle exposure, single replicate
[13] = Banfora, rate 12.5 ppm, 1 h bottle exposure, single replicate
[14] = Banfora, rate 25 ppm, 1 h bottle exposure, single replicate
[15] = 0.2 ppm, 24 h, read-out: adult mortality 24 h
[16] = 0.2 ppm, 48 h, read-out: adult mortality 48 h
[17] = 2 ppm, 24 h, read-out: adult mortality 24 h
[18] = 2 ppm, 48 h, read-out: adult mortality 48 h
[19] = 20 ppm, 24 h, read-out: adult mortality 24 h
[20] = 20 ppm, 48 h, read-out: adult mortality 48 h

Structure (SMILES): CO/C=C(/C(=O)OC)c1ccccc1Oc1ncc(C(F)(F)F)s1 [Compound of formula II, Methyl (E)-3-methoxy-2-[2-[5-(trifluoromethyl)thiazol-2-yl]oxyphenyl]-prop-2-enoate]
- percent knockdown or mortality at 6.25 ppm ([1]; 1 h): 61%
- percent knockdown or mortality at 12.5 ppm ([1]; 1 h): 33%
- percent knockdown or mortality at 25 ppm ([1]; 1 h): 100%
- adult knockdown 1 h ([2]; 0.2 ppm): 0
- adult knockdown 1 h ([2]; 2 ppm): 0
- adult knockdown 1 h ([2]; 20 ppm): 100
- mortality at 0.2 ppm [2, 7]: 0%
- mortality at 2 ppm [2, 7]: 80%
- mortality at 20 ppm [2, 7]: 100%
- mortality at 0.2 ppm [2, 8]: 0%
- mortality at 2 ppm [2, 8]: 100%
- mortality at 20 ppm [2, 8]: 100%
- mean knockdown or mortality (Table B4 does not name the quantity) ([3]; VK7 2014, rate 6.25 ppm): 7
- mean knockdown or mortality (Table B4 does not name the quantity) ([3]; VK7 2014, rate 12.5 ppm): 18
- mean knockdown or mortality (Table B4 does not name the quantity) ([3]; VK7 2014, rate 25 ppm): 100
- mortality at 0.3125 ppm (Anopheles stephensi; 24 h, read-out: Mortality 24 h): 15%
- mortality at 0.625 ppm (Anopheles stephensi; 24 h, read-out: Mortality 24 h): 33%
- mortality at 1.25 ppm (Anopheles stephensi; 24 h, read-out: Mortality 24 h): 83%
- mortality at 2.5 ppm (Anopheles stephensi; 24 h, read-out: Mortality 24 h): 93%
- mortality at 0.3125 ppm (Anopheles stephensi; 48 h, read-out: Mortality 48 h): 22%
- mortality at 0.625 ppm (Anopheles stephensi; 48 h, read-out: Mortality 48 h): 30%
- mortality at 1.25 ppm (Anopheles stephensi; 48 h, read-out: Mortality 48 h): 88%
- mortality at 2.5 ppm (Anopheles stephensi; 48 h, read-out: Mortality 48 h): 97%
- Knockdown 1 h (Anopheles stephensi; rate 0.3125 ppm): 13
- Knockdown 1 h (Anopheles stephensi; rate 0.625 ppm): 27
- Knockdown 1 h (Anopheles stephensi; rate 1.25 ppm): 48
- Knockdown 1 h (Anopheles stephensi; rate 2.5 ppm): 73
- mean knockdown or mortality at 6.25 ppm [4, 9]: 55%
- mean knockdown or mortality at 12.5 ppm [4, 10]: 46%
- mean knockdown or mortality at 25 ppm [4, 11]: 100%
- knockdown or mortality (%) at 6.25 ppm [5, 12]: 13%
- knockdown or mortality (%) at 12.5 ppm [5, 13]: 33%
- knockdown or mortality (%) at 25 ppm [5, 14]: 100%
- adult knockdown 1 h ([6]; 0.2 ppm): 0
- adult knockdown 1 h ([6]; 2 ppm): 0
- adult knockdown 1 h ([6]; 20 ppm): 100
- mortality at 0.2 ppm [6, 15]: 0%
- mortality at 0.2 ppm [6, 16]: 0%
- mortality at 2 ppm [6, 17]: 0%
- mortality at 2 ppm [6, 18]: 0%
- mortality at 20 ppm [6, 19]: 100%
- mortality at 20 ppm [6, 20]: 100%

Structure (SMILES): CC1(C)C(C=C(Cl)Cl)C1C(=O)OCc1cccc(Oc2ccccc2)c1 (stereo not drawn) [Permethrin]
- percent knockdown or mortality at 5 ppm ([1]; 1 h): 100%
- percent knockdown or mortality at 10 ppm ([1]; 1 h): 100%
- percent knockdown or mortality at 20 ppm ([1]; 1 h): 100%
- mean knockdown or mortality (Table B4 does not name the quantity) ([3]; VK7 2014, rate 6.25 ppm): 5
- mean knockdown or mortality (Table B4 does not name the quantity) ([3]; VK7 2014, rate 12.5 ppm): 3
- mean knockdown or mortality (Table B4 does not name the quantity) ([3]; VK7 2014, rate 25 ppm): 7
- mean knockdown or mortality at 6.25 ppm ([4]; 1 h): 13%
- mean knockdown or mortality at 12.5 ppm ([4]; 1 h): 45%
- mean knockdown or mortality at 25 ppm ([4]; 1 h): 69%
- knockdown or mortality (%) at 6.25 ppm ([5]; 1 h): 14%
- knockdown or mortality (%) at 12.5 ppm ([5]; 1 h): 38%
- knockdown or mortality (%) at 25 ppm ([5]; 1 h): 45%

Structure (SMILES): CO/C=C(/C(=O)OC)c1ccccc1Oc1nc(Cl)c(C(F)(F)F)s1 [Compound of formula I, Methyl (E)-2-[2-[4-chloro-5-(trifluoromethyl)thiazol-2-yl]oxyphenyl]-3-methoxy-prop-2-enoate]
- percent knockdown or mortality at 6.25 ppm ([1]; Kisumu sus, rate 6.25 ppm, 1 h bottle exposure): 74%
- percent knockdown or mortality at 12.5 ppm ([1]; Kisumu sus, rate 12.5 ppm, 1 h bottle exposure): 99%
- percent knockdown or mortality at 25 ppm ([1]; Kisumu sus, rate 25 ppm, 1 h bottle exposure): 100%
- adult knockdown 1 h ([2]; 0.2 ppm): 0
- adult knockdown 1 h ([2]; 2 ppm): 80
- adult knockdown 1 h ([2]; 20 ppm): 100
- mortality at 0.2 ppm [2, 7]: 20%
- mortality at 2 ppm [2, 7]: 100%
- mortality at 20 ppm [2, 7]: 100%
- mortality at 0.2 ppm [2, 8]: 20%
- mortality at 2 ppm [2, 8]: 100%
- mortality at 20 ppm [2, 8]: 100%
- mean knockdown or mortality (Table B4 does not name the quantity) ([3]; VK7 2014, rate 6.25 ppm): 10
- mean knockdown or mortality (Table B4 does not name the quantity) ([3]; VK7 2014, rate 12.5 ppm): 61
- mean knockdown or mortality (Table B4 does not name the quantity) ([3]; VK7 2014, rate 25 ppm): 100
- mortality at 0.3125 ppm (Anopheles stephensi; 24 h, read-out: Mortality 24 h): 63%
- mortality at 0.625 ppm (Anopheles stephensi; 24 h, read-out: Mortality 24 h): 80%
- mortality at 1.25 ppm (Anopheles stephensi; 24 h, read-out: Mortality 24 h): 98%
- mortality at 2.5 ppm (Anopheles stephensi; 24 h, read-out: Mortality 24 h): 100%
- mortality at 0.3125 ppm (Anopheles stephensi; 48 h, read-out: Mortality 48 h): 65%
- mortality at 0.625 ppm (Anopheles stephensi; 48 h, read-out: Mortality 48 h): 82%
- mortality at 1.25 ppm (Anopheles stephensi; 48 h, read-out: Mortality 48 h): 100%
- mortality at 2.5 ppm (Anopheles stephensi; 48 h, read-out: Mortality 48 h): 100%
- Knockdown 1 h (Anopheles stephensi; rate 0.3125 ppm): 20
- Knockdown 1 h (Anopheles stephensi; rate 0.625 ppm): 43
- Knockdown 1 h (Anopheles stephensi; rate 1.25 ppm): 70
- Knockdown 1 h (Anopheles stephensi; rate 2.5 ppm): 87
- mean knockdown or mortality at 6.25 ppm [4, 9]: 69%
- mean knockdown or mortality at 12.5 ppm [4, 10]: 81%
- mean knockdown or mortality at 25 ppm [4, 11]: 100%
- knockdown or mortality (%) at 6.25 ppm [5, 12]: 26%
- knockdown or mortality (%) at 12.5 ppm [5, 13]: 52%
- knockdown or mortality (%) at 25 ppm [5, 14]: 100%
- adult knockdown 1 h ([6]; 0.2 ppm): 0
- adult knockdown 1 h ([6]; 2 ppm): 20
- adult knockdown 1 h ([6]; 20 ppm): 100
- mortality at 0.2 ppm [6, 15]: 20%
- mortality at 0.2 ppm [6, 16]: 20%
- mortality at 2 ppm [6, 17]: 60%
- mortality at 2 ppm [6, 18]: 80%
- mortality at 20 ppm [6, 19]: 100%
- mortality at 20 ppm [6, 20]: 100%
